# Measured values taken from patent US20040077640A1 (priority 2000, published 2004).
# Structures can show the parent of a compound that is named as a salt.
row,Compound,melting point
1,CC(C)(C)OC(=O)N1CCC(c2nc(-c3ccc(F)cc3)c[nH]2)CC1,180 to 182 °C
2,CCCCOC(=O)N1CCCC(c2nc(-c3ccc(F)cc3)c[nH]2)C1 (stereo not drawn),96.5 °C
3,CCCCOC(=O)N1CCCCC1c1nc(-c2ccc(F)cc2)c[nH]1 (stereo not drawn),157.4 °C
4,Fc1ccc(-c2c[nH]c(C3CCNCC3)n2)cc1 (as salt: hydrochloride),> 260 °C
5,Fc1ccc(-c2c[nH]c(C3CCCCN3)n2)cc1 (stereo not drawn) (as salt: hydrochloride),222 to 223 °C
6,COc1ccc(-c2c[nH]c(C3CCNCC3)n2)cc1 (as salt: hydrochloride),272 to 273 °C
7,"c1ccc(-c2ccc(-c3c[nH]c(C4CCCNC4)n3)cc2)cc1 (stereo not drawn) (as salt: hydrochloride) [Example 22, 3-[4-(1,1′-biphenyl-4-yl)-1H-imidazol-2-yl]piperidine]",226 to 227 °C
8,"c1ccc(CN2CCC(c3nc(-c4ccc(-c5ccccc5)cc4)c[nH]3)CC2)cc1 [Example 12, 1-benzyl4-[4-(1,1′-biphenyl-4-yl)-1H-imidazol-2-yl]piperidine]",110 to 112 °C
9,"CCCCOC(=O)N1CCC(c2nc(-c3ccc(C(C)(C)C)cc3)c[nH]2)CC1 [Example 13, butyl 4-[4-(4-tert-butylphenyl)-1H-imidazol-2-yl]piperidine-1-carboxylate]",98 to 100 °C
10,"Fc1ccc(-c2c[nH]c(C3CCCCN3Cc3ccccc3)n2)cc1 (stereo not drawn) [Example 17, 1-benzyl-2-[4-(4-fluorophenyl)-1H-imidazol-2-yl]piperidine]",181.6 °C
11,"CCCCCCN1CCC(c2nc(-c3ccc(-c4ccccc4)cc3)c[nH]2)CC1 [Example 19, 4-[4-(1,1′-biphenyl-4-yl)-1H-imidazol-2-yl]-1-hexylpiperidine]",138 to 139 °C
12,"CCCCOC(=O)N1CCC(c2nc(-c3ccc(-c4ccccc4)cc3)c[nH]2)CC1 [Example 20, butyl 4-[4-(1,1′-biphenyl-4-yl)-1H-imidazol-2-yl]piperidine-1-carboxylate]",73 to 74 °C
13,"CCCCOC(=O)N1CCCCC1c1nc(-c2ccc(-c3ccccc3)cc2)c[nH]1 (stereo not drawn) [Example 23, butyl 2-[4-(1,1′-biphenyl-4-yl)-1H-imidazol-2-yl]piperidine-1-carboxylate]",166 to 167 °C
14,"CCCCOC(=O)N1CCCC(c2nc(-c3ccc(-c4ccccc4)cc3)c[nH]2)C1 (stereo not drawn) [Example 24, butyl 3-[4-(1,1′-biphenyl-4-yl)-1H-imidazol-2-yl]piperidine-1-carboxylate]",116 to 117 °C
15,"CCCCOC(=O)N1CCC(c2nc(-c3ccc(OC)cc3)c[nH]2)CC1 [Example 26, butyl 4-[4-(4-methoxyphenyl)-1H-imidazol-2-yl]piperidine-1-carboxylate]",48 to 50 °C
